Where “and” joins values, the source holds several entries; their conditions need not be identical. Identical values can stand only once.
Experiments:
Pavon 76 microspores = assay: Optimization of 2,4-D concentration, embryoid yield, green plants and doubled haploids (Example 5); format: cell-based, wheat
Procedure: (§1) Pretreatment of Spikes. After removing the lower nodal section, the collected tillers are placed in an autoclaved sterile flask, containing 50 ml of sterile (autoclaved) distilled water and preferably 0.1% (w/v) 2-HNA and 10^−6 to 10^−5 M 2,4-D. The open end of a plastic bag (thin-walled, grocery store bag) is then wrapped around the neck of the flask and sealed around the neck with masking tape to prevent microbial contamination and excessive loss of water. The flask is then placed in an incubator set at the desired stress temperature, optionally 33° C., but the temperature employed may be higher or lower. The optimum period of pretreatment varies with the genotype, but is preferably from between about 0.5 hours and about 72 hours, depending on the temperature. A presently preferred temperature pretreatment regime is from about 48 hours to about 72 hours at a temperature of about 33° C. The flask containing tillers can also be stored in a refrigerator at 4° C. for up to 1 month before subjecting the microspores to temperature stress treatment. It is important that after the temperature stress treatment, the tillers should not be stored in a refrigerator at 4° C. because the microspore viability goes down sharply.
(§2) Culture of isolated microspores. Isolated microspores are cultured in liquid NPB 98-1 medium or liquid NPB-99 medium, preferably liquid NPB-99 medium, as a suspension culture. An aliquot of 2 ml media per 35 mm×10 mm Petri dish, or 5 ml media per 60 mm×15 mm Petri dish, at a density of approximately 1.5×10^4 microspores per ml is effective. Immature ovaries are added to the culture at a density of one per ml of medium immediately preceding the incubation. Ovaries are aseptically picked out from fresh and disinfected spikes. Ovaries of all genotypes are effective for the present invention, but the ovaries from varieties Chris or Pavon 76 are preferred for embryogenesis of all wheat varieties tested. The Petri dish is sealed with parafilm and incubated in the dark at 27° C.
(§3) When embryoids reach the size of 1 to 2 mm, they are transferred aseptically to solid 190-2 or 190-2(b) medium, preferably 190-2(b) medium, at a density of 25-30 embryoids in each 100×15 mm Petri dish. They are incubated under continuous fluorescent light at room temperature (22° C.). In approximately two weeks, green plantlets develop and are ready for transfer to soil. Green plants are raised in the greenhouse, much like plants grown from seeds. If plants appear to be haploid, colchicine can be applied to induce chromosome doubling. Seeds produced on any plants are instantly homozygous, and so can immediately be used for rapid evaluation and selection in breeding, for analyses in genetics research, or for selection and evaluation of transformants in biotechnology.
(§4) Experiments were conducted to optimize the amount of 2,4-D utilized to induce androgenesis and regeneration of green plants. Plant material was treated in accordance with the methods set forth in Example 1, except as described herein. Spikes of wheat cultivar Pavon 76 were treated with 2,4-D at concentrations of 0, 0.2, 2.2, or 22.1 mg/l plus a fixed dose of 2-HNA at 100 mg/l. Two spikes were utilized per treatment.
Spikes were incubated in sterile flasks with 2-HNA plus different doses of 2,4-D. The flasks were incubated at 33° C. for 46 hours before blending to release microspores. Microspores were cultured in 6-cm Petri dishes, each containing 5 ml medium NPB 98-1 plus 0 or 0.2 mg/l 2,4-D and incubated at 27° C. The regeneration medium was 190-2. Five fresh, live, immature Chris ovaries per Petri dish were included in each Petri dish.

[1] = tested on: microspores of wheat cultivar Chris; assay: Optimization of 2,4-D concentration, embryoid yield and green plants (Example 4); format: cell-based
Procedure: as §1, §2, §3
Experiments were conducted to optimize the amount of 2,4-D utilized to enhance androgenesis and regeneration of green plants. Plant material was treated in accordance with the methods set forth in Example 1, except as described herein. Tillers of wheat cultivar Chris were treated with 2,4-D at concentrations of 0.2, 22.1, or 221 mg/l plus a fixed dose of 2-HNA at 100 mg/l. Two tillers were utilized per treatment.
Tillers in flasks with 2-HNA, plus different 2,4-D doses were placed at 33° C. for 70 hours before blending to release microspores. Microspores were cultured in 60×15 mm Petri dishes, each containing 5 ml medium NPB 98-1 plus 1 mg/l 2,4-D and incubated at 27° C. The regeneration medium was 190-2. Five fresh, live, immature Chris ovaries per Petri dish were included in each Petri dish.

[2] = tested on: microspores of wheat cultivar Pavon 76; assay: Optimization of 2-HNA concentration, embryoid yield and green plants (Example 3); format: cell-based
Procedure: as §1, §2, §3
as §4, with “2-HNA” for “2,4-D”, “stimulate” for “induce”, “Tillers” for “Spikes”, “100, 500” for “0.2, 2.2,”, “1000” for “22.1 mg/l plus a fixed dose of 2-HNA at 100”, “tillers” for “spikes”
Tillers were placed in sterile flasks containing 50 ml 2-HNA solution and incubated at 33° C. for 46 hours before blending to release microspores. Microspores were again cultured in 60×15 mm Petri dishes, each containing 5 ml medium NPB 98-1 and incubated at 27° C. The regeneration medium was 190-2. Five fresh, live, immature Pavon 76 ovaries per Petri dish were included in each Petri dish.

[3] = tested on: microspores of wheat cultivar Chris; assay: Effect of 2-HNA concentration on embryoid induction and green plant regeneration (Example 2); format: cell-based
Procedure: as §1, §2, §3
Experiments were conducted to evaluate the effect of 2-HNA on embryoid induction and green plant regeneration. Plant material was treated in accordance with the methods set forth in Example 1, except as described herein. Tillers of wheat cultivar Chris were treated with 2-HNA at concentrations of 0, 1, 10 or 100 mg/l. Three tillers were utilized for each concentration of 2-HNA.
Chris tillers were placed in sterile flasks and incubated with 2-HNA dissolved in sterile water at 33° C. for 66 hours before blending to release the microspores. As an option to ease the work schedule, newly sampled tillers may be incubated with 2-HNA at 4° C. for up to 72 hrs prior to the 33° C. treatment. Isolated microspores were cultured in 60×15 mm Petri dishes each containing 5 ml of medium NPB 98-1, including 1 mg/l phenylacetic acid (PAA) and incubated at 27° C. The regeneration medium was 190-2. Five fresh, live, Chris ovaries per Petri dish were included in each Petri dish.

[4] = pretreatment 2,4-D 0.2 mg/l + 2-HNA 100 mg/l, mean
[5] = pretreatment 2,4-D 0.2 mg/l + 2-HNA 100 mg/l, single repeats
[6] = pretreatment 2,4-D 2.2 mg/l + 2-HNA 100 mg/l, mean
[7] = pretreatment 2,4-D 2.2 mg/l + 2-HNA 100 mg/l, single repeats
[8] = pretreatment 2,4-D 22.1 mg/l + 2-HNA 100 mg/l, mean
[9] = pretreatment 2,4-D 22.1 mg/l + 2-HNA 100 mg/l, single repeats
[10] = pretreatment 2-HNA 100 mg/l, 2,4-D 0 mg/l, mean
[11] = 2-HNA 100 mg/l, % of embryoids transferred to regeneration medium, single repeats

In the case of `O=C(O)COc1ccc(Cl)cc1Cl` [2,4-D, 2,4-dichlorophenoxyacetic acid], the “2,4-D concentration during the pretreatment at which number of induced embryoids and percentage of regenerated green plants were highest” value (Pavon 76 microspores; plus 2-HNA 100 mg/l) is reported as 2.2 mg/L, the Number of embryoids (Pavon 76 microspores; pretreatment 2,4-D 0.2 mg/l + 2-HNA 100 mg/l, induction medium 2,4-D 0.2 mg/l, single repeats) is reported as 1200 and 1121 and the Number of embryoids (Pavon 76 microspores; [4]) is reported as 1161. The “green plant (%)” value (Pavon 76 microspores; [4]) was 9%, the “green plant (%)” value (Pavon 76 microspores; [5]) was 9% and the Number of embryoids (Pavon 76 microspores; pretreatment 2,4-D 2.2 mg/l + 2-HNA 100 mg/l, induction medium 2,4-D 0.2 mg/l, single repeats) was 1675 and 1634. For the same molecule, the Number of embryoids (Pavon 76 microspores; [6]) was 1655, the “green plant (%)” value (Pavon 76 microspores; [6]) was 30% and the Doubled-Haploid % (Pavon 76 microspores; [7]) was 50% and 38%. The “green plant (%)” value (Pavon 76 microspores; [7]) was 31% and 28%, the Number of embryoids (Pavon 76 microspores; pretreatment 2,4-D 22.1 mg/l + 2-HNA 100 mg/l, induction medium 2,4-D 0.2 mg/l, single repeats) was 1119 and 1012 and the Number of embryoids (Pavon 76 microspores; [8]) was 1066. The “green plant (%)” value (Pavon 76 microspores; [8]) was 18%, the Doubled-Haploid % (Pavon 76 microspores; [9]) was 17% and the “2,4-D concentration during the pretreatment at which number of induced embryoids and percentage of regenerated green plants were highest” value ([1]; plus 2-HNA 100 mg/l) was 1 mg/L. For the same molecule, the Number of embryoids ([1]; pretreatment 2,4-D 0.2 mg/l + 2-HNA 100 mg/l, 33° C. 70 hours, induction medium 2,4-D 1 mg/l, single repeats) was 2088 and 2107, the Number of embryoids [1, 4] was 2098 and the “green plant (%)” value [1, 4] was 92%. The “green plant (%)” value [1, 5] was 83% and 100%, the Number of embryoids ([1]; pretreatment 2,4-D 22.1 mg/l + 2-HNA 100 mg/l, 33° C. 70 hours, induction medium 2,4-D 1 mg/l, single repeats) was 1908 and 1156 and the Number of embryoids [1, 8] was 1532. For the same molecule, the “green plant (%)” value [1, 8] was 71%, the “green plant (%)” value [1, 9] was 63% and 79% and the Number of embryoids ([1]; pretreatment 2,4-D 221 mg/l + 2-HNA 100 mg/l, 33° C. 70 hours, induction medium 2,4-D 1 mg/l, single repeats) was 0. For the same molecule, the Number of embryoids ([1]; pretreatment 2,4-D 221 mg/l + 2-HNA 100 mg/l, mean) was 0.
With `O=C(O)c1cccnc1O` [2-HNA, 2-hydroxynicotinic acid] the Number of embryoids (Pavon 76 microspores; pretreatment 2-HNA 100 mg/l, 2,4-D 0 mg/l, induction medium 2,4-D 0, 33° C. 46 hours, single repeats) was 603 and 607, the Number of embryoids (Pavon 76 microspores; [10]) was 605 and the “green plant (%)” value (Pavon 76 microspores; [10]) was 19%. For the same molecule, the “green plant (%)” value (Pavon 76 microspores; pretreatment 2-HNA 100 mg/l, 2,4-D 0 mg/l, single repeats) was 13% and 25%, the “green plant (%)” value [2, 11] was 60% and 67% and the “# embryoids” value ([2]; 2-HNA 100 mg/l, mean) was 1356. For the same molecule, the “green plant (%)” value ([2]; 2-HNA 100 mg/l, mean) was 63%, the “green plant (%)” value ([2]; 2-HNA 500 mg/l, % of embryoids transferred to regeneration medium, single repeats) was 33% and the “# embryoids” value ([2]; 2-HNA 500 mg/l, mean) was 66. For the same molecule, the “green plant (%)” value ([2]; 2-HNA 500 mg/l, mean) was 33%, the “green plant (%)” value ([2]; 2-HNA 1000 mg/l, % of embryoids transferred to regeneration medium, single repeats) was 40% and 22% and the “# embryoids” value ([2]; 2-HNA 1000 mg/l, mean) was 768. For the same molecule, the “green plant (%)” value ([2]; 2-HNA 1000 mg/l, mean) was 31%, the “2-HNA concentration at which number of induced embryoids and percentage of regenerated green plants were highest” value ([2]; tested 0, 100, 500 or 1000 mg/l) was 100 mg/L and the “number of induced embryoids, dependence on concentration” value ([3]; 2-HNA 0, 1, 10 or 100 mg/l) was “increases with increasing concentrations of 2-HNA”. For the same molecule, the “percentage of regenerated green plants, dependence on concentration” value ([3]; 2-HNA 0, 1, 10 or 100 mg/l) was “does not significantly differ”, the “green plant (%)” value ([3]; 2-HNA 1 mg/l, % of embryoids transferred to regeneration medium, single repeats) was 100% and the Number of embryoids ([3]; 2-HNA 1 mg/l, mean) was 118. The “green plant (%)” value ([3]; 2-HNA 1 mg/l, mean) was 100%, the “green plant (%)” value ([3]; 2-HNA 10 mg/l, % of embryoids transferred to regeneration medium, single repeats) was 94% and 100% and the Number of embryoids ([3]; 2-HNA 10 mg/l, mean) was 322. For the same molecule, the “green plant (%)” value ([3]; 2-HNA 10 mg/l, mean) was 97%, the Number of embryoids ([3]; 2-HNA 100 mg/l, 33° C. 66 hours, single repeats (rep 1, rep 2)) was 1258 and 1217 and the “green plant (%)” value [3, 11] was 100%. For the same molecule, the Number of embryoids ([3]; 2-HNA 100 mg/l, mean) was 1238 and the “green plant (%)” value ([3]; 2-HNA 100 mg/l, mean) was 100%.
